Results from patent US20190284168A1, “PYRAZOLE DERIVATIES AS SGC STIMULATORS” (IRONWOOD PHARMACEUTICALS, INC., priority 2014, published 2019).

Molecular target: T1, soluble guanylate cyclase (sGC) (Homo sapiens, UniProt Q02108+Q02153)
T1 construct: endogenously expressing soluble guanylate cyclase (sGC); endogenous in cells; host or cells: HEK293
T1 sequence (Q02153 1-619): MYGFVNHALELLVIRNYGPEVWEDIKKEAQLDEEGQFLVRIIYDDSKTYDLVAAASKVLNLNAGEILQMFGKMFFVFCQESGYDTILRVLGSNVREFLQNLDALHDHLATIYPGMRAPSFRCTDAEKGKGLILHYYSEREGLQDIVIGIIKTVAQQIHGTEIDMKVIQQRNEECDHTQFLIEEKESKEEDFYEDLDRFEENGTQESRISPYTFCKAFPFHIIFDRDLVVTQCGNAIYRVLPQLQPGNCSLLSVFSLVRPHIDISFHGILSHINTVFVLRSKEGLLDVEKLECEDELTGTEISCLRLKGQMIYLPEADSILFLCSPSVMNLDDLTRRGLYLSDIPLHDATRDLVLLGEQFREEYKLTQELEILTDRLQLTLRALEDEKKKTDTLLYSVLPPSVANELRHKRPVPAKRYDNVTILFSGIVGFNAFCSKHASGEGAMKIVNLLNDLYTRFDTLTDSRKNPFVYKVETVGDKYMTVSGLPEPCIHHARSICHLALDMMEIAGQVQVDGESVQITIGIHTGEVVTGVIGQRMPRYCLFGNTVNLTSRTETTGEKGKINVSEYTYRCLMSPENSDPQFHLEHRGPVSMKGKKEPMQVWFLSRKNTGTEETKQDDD
T1 sequence (Q02108 1-690): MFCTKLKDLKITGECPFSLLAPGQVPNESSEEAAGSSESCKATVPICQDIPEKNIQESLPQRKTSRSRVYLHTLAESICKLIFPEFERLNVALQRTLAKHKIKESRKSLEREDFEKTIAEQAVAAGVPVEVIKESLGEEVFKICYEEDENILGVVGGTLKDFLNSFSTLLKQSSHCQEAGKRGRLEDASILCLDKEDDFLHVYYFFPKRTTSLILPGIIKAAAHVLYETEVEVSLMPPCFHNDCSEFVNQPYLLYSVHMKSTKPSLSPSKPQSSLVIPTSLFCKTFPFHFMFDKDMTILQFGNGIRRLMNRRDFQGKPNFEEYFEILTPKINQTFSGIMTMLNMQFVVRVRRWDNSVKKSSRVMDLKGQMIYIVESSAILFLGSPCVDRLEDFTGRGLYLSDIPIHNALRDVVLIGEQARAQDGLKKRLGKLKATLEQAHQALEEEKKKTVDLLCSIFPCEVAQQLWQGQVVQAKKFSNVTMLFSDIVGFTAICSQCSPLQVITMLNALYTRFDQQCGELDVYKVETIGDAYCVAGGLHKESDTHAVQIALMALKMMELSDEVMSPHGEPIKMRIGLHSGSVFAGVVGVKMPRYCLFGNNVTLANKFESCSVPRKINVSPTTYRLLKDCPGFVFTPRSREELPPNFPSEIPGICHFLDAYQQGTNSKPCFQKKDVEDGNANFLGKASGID
Assay: sGC-HEK-cGMP assay with LC/MS detection
Type: cell-based
Settings: not given

In the case of Oc1cc(CNc2nc(-c3cc(-c4ccon4)n(Cc4ccccc4F)n3)ncc2F)on1 [Compound 28], the EC50 is reported as less than 100 nM.

Same assay, conditions: HEK293 whole cells, LC/MS detection of cGMP, 10 μM DETA-NONOate; 50% of high control response (30 μM Compound Y); read-out: Absolute EC50 (nM)- binned (~)

First: CC(C)OC(=O)CCNc1nc(-c2cc(-c3ccon3)n(Cc3ccccc3F)n2)ncc1F [Compound 164, isopropyl 3-((5-fluoro-2-(1-(2-fluorobenzyl)-5-(isoxazol-3-yl)-1H-pyrazol-3-yl)pyrimidin-4-yl)amino)propanoate]
Second: CC(C)C(C)(N)CNc1nc(-c2cc(-c3ccon3)n(Cc3ccccc3F)n2)ncc1F (centres unmarked) [Compound 154, N1-(5-fluoro-2-(1-(2-fluorobenzyl)-5-(isoxazol-3-yl)-1H-pyrazol-3-yl)pyrimidin-4-yl)-2,3-dimethylbutane-1,2-diamine]
The EC50 of the first is lower: less than 100 nM for the first, 100 to 1000 nM for the second.

CC(C)[C@H](CO)Nc1nc(-c2cc(-c3ccon3)n(Cc3ccccc3F)n2)ncc1F [Compound 148, (R)-2-((5-fluoro-2-(1-(2-fluorobenzyl)-5-(isoxazol-3-yl)-1H-pyrazol-3-yl)pyrimidin-4-yl)amino)-3-methylbutan-1-ol] and CCC[C@H](CO)Nc1nc(-c2cc(-c3ccon3)n(Cc3ccccc3F)n2)ncc1F [Compound 152, (R)-2-((5-fluoro-2-(1-(2-fluorobenzyl)-5-(isoxazol-3-yl)-1H-pyrazol-3-yl)pyrimidin-4-yl)amino)pentan-1-ol] cannot be ordered by EC50: less than 100 nM for the first, less than 100 nM for the second.

COC1=CC(=O)N(c2nc(-c3cc(-c4ccon4)n(Cc4ccccc4F)n3)ncc2F)C1 [Compound 147, 1-(5-fluoro-2-(1-(2-fluorobenzyl)-5-(isoxazol-3-yl)-1H-pyrazol-3-yl)pyrimidin-4-yl)-4-methoxy-1H-pyrrol-2(5H)-one] and COc1nn(-c2nc(-c3cc(-c4ccon4)n(Cc4ccccc4F)n3)ncc2F)cc1CC(N)=O [Compound 57] cannot be ordered by EC50: greater than 1000 nM for the first, greater than 30000 nM for the second.

First: Nc1nnc(C(O)(CNc2nc(-c3cc(-c4ccon4)n(Cc4ccccc4F)n3)ncc2F)C(F)(F)F)o1 (centres unmarked) [Compound 42]
Second: OC(CNc1nc(-c2cc(-c3ccon3)n(Cc3ccccc3F)n2)ncc1F)(c1nnc(C2CC2)o1)C(F)(F)F (centres unmarked) [Compound 69, 2-(5-cyclopropyl-1,3,4-oxadiazol-2-yl)-1,1,1-trifluoro-3-((5-fluoro-2-(1-(2-fluorobenzyl)-5-(isoxazol-3-yl)-1H-pyrazol-3-yl)pyrimidin-4-yl)amino)propan-2-ol]
The EC50 of the first is higher: 100 to 1000 nM for the first, less than 100 nM for the second. The second is the more potent here.

Compared with Fc1ccccc1Cn1nc(-c2ncc(F)c(Nc3nnc(C(F)(F)F)[nH]3)n2)cc1-c1ccon1 [Compound 12], Cc1nnc(Nc2nc(-c3cc(-c4ccon4)n(Cc4ccccc4F)n3)ncc2F)o1 [Compound 14] is lower in EC50: greater than 30000 nM for the first, 100 to 1000 nM for the second. The second is the more potent here.

Compared with Nc1ccc(CNc2nc(-c3cc(-c4ccon4)n(Cc4ccccc4F)n3)ncc2F)cc1O [Compound 159, 2-amino-5-(((5-fluoro-2-(1-(2-fluorobenzyl)-5-(isoxazol-3-yl)-1H-pyrazol-3-yl)pyrimidin-4-yl)amino)methyl)phenol], CS(=O)(=O)Nc1ccc(CNc2nc(-c3cc(-c4ccon4)n(Cc4ccccc4F)n3)ncc2F)cc1O [Compound 161, N-(4-(((5-fluoro-2-(1-(2-fluorobenzyl)-5-(isoxazol-3-yl)-1H-pyrazol-3-yl)pyrimidin-4-yl)amino)methyl)-2-hydroxyphenyl)methanesulfonamide] is lower in EC50: greater than 30000 nM for the first, 100 to 1000 nM for the second.

First: CC(=O)c1cc(-c2ncc(F)c(N3CCC(S(N)(=O)=O)CC3)n2)nn1Cc1ccccc1F [Compound 88]
Second: CC(=O)c1cc(-c2ncc(F)c(N3CCN(S(C)(=O)=O)CC3)n2)nn1Cc1ccccc1F [Compound 120]
The EC50 of the first is lower: 100 to 1000 nM for the first, greater than 30000 nM for the second.

Oc1ccc(Cn2nc(-c3ncc(F)c(NCC(O)(C(F)(F)F)C(F)(F)F)n3)cc2-c2ccon2)c(F)c1 [Compound 184] and NC(=O)[C@](O)(CNc1nc(-c2cc(-c3ccon3)n(Cc3ccc(O)cc3F)n2)ncc1F)C(F)(F)F [Compound 195] cannot be ordered by EC50: greater than 1000 nM for the first, greater than 1000 nM for the second.

Nc1nc(-c2cc(-c3ccon3)n(Cc3ccccc3F)n2)ncc1NCCO [Compound 10] and O=[N+]([O-])c1cnc(-c2cc(-c3ccon3)n(Cc3ccccc3F)n2)nc1NCCO [Compound 7] cannot be ordered by EC50: greater than 1000 nM for the first, greater than 30000 nM for the second.

Compared with CS(=O)(=O)CCNc1cnc(-c2cc(-c3ccon3)n(Cc3ccccc3F)n2)nc1 [Compound 22], CCC(C)(N)CNc1nc(-c2cc(-c3ccon3)n(Cc3ccccc3F)n2)ncc1F (centres unmarked) [Compound 55] is lower in EC50: greater than 1000 nM for the first, 100 to 1000 nM for the second. The second is the more potent here.

First: NC(=O)c1nnc2n1CCN(c1nc(-c3cc(-c4ccon4)n(Cc4ccccc4F)n3)ncc1F)C2 [Compound 54]
Second: NC(=O)Cc1c[nH]n(-c2nc(-c3cc(-c4ccon4)n(Cc4ccccc4F)n3)ncc2F)c1=O [Compound 40]
The EC50 of the first is lower: less than 100 nM for the first, greater than 1000 nM for the second. The first is the more potent here.

CC(=O)c1cc(-c2ncc(F)c(N)n2)nn1Cc1ccccc1F [Compound 84] and CC(=O)c1cc(-c2ncc(F)c(N3CC(F)(F)C3)n2)nn1Cc1ccccc1F [Compound 114] cannot be ordered by EC50: greater than 1000 nM for the first, greater than 1000 nM for the second.

Compared with O=C(Nc1nc(-c2cc(-c3ccon3)n(Cc3ccccc3F)n2)ncc1F)OCCN1CCOCC1 [Compound 158, 2-morpholinoethyl (5-fluoro-2-(1-(2-fluorobenzyl)-5-(isoxazol-3-yl)-1H-pyrazol-3-yl)pyrimidin-4-yl)carbamate], CCC(N)(CC)CNc1nc(-c2cc(-c3ccon3)n(Cc3ccccc3F)n2)ncc1F [Compound 153, 2-ethyl-N1-(5-fluoro-2-(1-(2-fluorobenzyl)-5-(isoxazol-3-yl)-1H-pyrazol-3-yl)pyrimidin-4-yl)butane-1,2-diamine] is lower in EC50: greater than 1000 nM for the first, 100 to 1000 nM for the second.

CC(=O)c1cc(-c2ncc(F)c(N3CCC(C)(C(=O)O)CC3)n2)nn1Cc1ccccc1F [Compound 181] and CC(=O)c1cc(-c2ncc(F)c(N3CCC(C(=O)O)(C(C)C)CC3)n2)nn1Cc1ccccc1F [Compound 179] fall in the same range of EC50: 100 to 1000 nM for the first, 100 to 1000 nM for the second.

First: CCOC(=O)C(C)(C)c1nnc(-c2cc(-c3ccon3)n(Cc3ccccc3F)n2)nc1OC [Compound 61]
Second: CCCC(C)(N)CNc1nc(-c2cc(-c3ccon3)n(Cc3ccccc3F)n2)ncc1F (centres unmarked) [Compound 155, N1-(5-fluoro-2-(1-(2-fluorobenzyl)-5-(isoxazol-3-yl)-1H-pyrazol-3-yl)pyrimidin-4-yl)-2-methylpentane-1,2-diamine]
The EC50 of the first is higher: greater than 1000 nM for the first, 100 to 1000 nM for the second. The second is the more potent here.

Compared with CC1(C#N)C(=O)Nc2nc(-c3cc(-c4ccon4)n(Cc4ccccc4F)n3)nc(N)c21 (centres unmarked) [Compound 29], NC(=O)Cc1cn(-c2nc(-c3cc(-c4ccon4)n(Cc4ccccc4F)n3)ncc2F)[nH]c1=O [Compound 41] is higher in EC50: less than 100 nM for the first, greater than 1000 nM for the second.

CS(=O)(=O)c1cc(-c2ncc(F)c(O)n2)nn1Cc1ccccc1F [Compound 196] and CCCS(=O)(=O)Nc1nc(-c2cc(C(C)=O)n(Cc3ccccc3F)n2)ncc1F [Compound 97] cannot be ordered by EC50: greater than 30000 nM for the first, greater than 1000 nM for the second.

CC(=O)c1cc(-c2ncc(F)c(N3CCCCC3)n2)nn1Cc1ccccc1F [Compound 93] and CC(=O)c1cc(-c2ncc(F)c(N3CCCC(F)(F)C3)n2)nn1Cc1ccccc1F [Compound 79] fall in the same range of EC50: 100 to 1000 nM for the first, 100 to 1000 nM for the second.

First: O=S(=O)(Nc1ccc(CNc2nc(-c3cc(-c4ccon4)n(Cc4ccccc4F)n3)ncc2F)cc1O)C1CC1 [Compound 160, N-(4-(((5-fluoro-2-(1-(2-fluorobenzyl)-5-(isoxazol-3-yl)-1H-pyrazol-3-yl)pyrimidin-4-yl)amino)methyl)-2-hydroxyphenyl)cyclopropanesulfonamide]
Second: O=C(NC1CC1)C(O)(CNc1nc(-c2cc(-c3ccon3)n(Cc3ccccc3F)n2)ncc1F)C(F)(F)F (centres unmarked) [Compound 65]
The EC50 of the first is higher: 100 to 1000 nM for the first, less than 100 nM for the second. The second is the more potent here.

CC(=O)c1cc(-c2ncc(F)c(N3CCNC(C(F)(F)F)C3)n2)nn1Cc1ccccc1F (centres unmarked) [Compound 71] and COC1CCN(c2nc(-c3cc(C(C)=O)n(Cc4ccccc4F)n3)ncc2F)C1 (centres unmarked) [Compound 80] fall in the same range of EC50: 100 to 1000 nM for the first, 100 to 1000 nM for the second.

CC(=O)c1cc(-c2ncc(F)c(NCc3cc(=O)[nH]o3)n2)nn1Cc1ccccc1F [Compound 70] and NC(=O)C(O)(CNc1nc(-n2cc(-c3ccon3)c(Cc3ccccc3F)n2)ncc1F)C(F)(F)F (centres unmarked) [Compound 30] fall in the same range of EC50: 100 to 1000 nM for the first, 100 to 1000 nM for the second.

In the case of CCC(C)(NC(=O)OCc1ccccc1)C(=O)Nc1ccnc(-c2cc(-c3ccon3)n(Cc3ccccc3F)n2)n1 (centres unmarked) [Compound 46], the EC50 is reported as greater than 1000 nM.
